Experimental data as given in patent US12679801B2, “Amino lipid and preparation method and application thereof” (Shenzhen MagicRNA Biotechnology Co., Ltd., priority 2022, dated 2026).

Test system: BMDC primary cells
Test: Luc mRNA LNP transfection on BMDC primary cells (Embodiment 13, Table 3)
Assay type: cell-based, C57BL/6 mice
Conditions: 16 h, ONE-Glo Luciferase
Experimental: Preparation method: the same as that described in Embodiment 7.
Animal preparation: 6-week-old female C57BL/6 mice with the body weight about 20 g were selected. The feeding environment was an SPF stage feeding room. Animal tests were strictly performed according to the guide of the national health institute and the animal ethics requirements.
Cell acquisition: C57BL/6 mice were killed through cervical dislocation, and were soaked for 5 min in 75% ethyl alcohol. Dissection was performed to obtain thigh and calf tibiae of the mice. Attached muscles were removed to expose sclerotin. Then, bone marrow in tibiae was blown out by using a 1 mL injector sucked with PBS. After the bone marrow was blown away, impurities were filtered away by a 50 μm filter screen. A red blood cell lysis buffer (3-4 mL) was added into an obtained filtrate. Then, after placement for 5 min, 800 g centrifugation was performed for 5 min to remove the supernatant. The obtained cells were placed into a 1640 culture medium (containing 10% fetal calf serum, 20 ng/mL GMCSF and 10 ng/ml IL4) to be resuspended, and were inoculated into a 6-well plate at an inoculation density of 100000 cells/ml culture medium. The materials were placed into a 37° C. cell incubator containing 5% CO2. Half liquid change was performed once every 2 days. Suspended cells and loose wall attached cells were collected on the seventh day, and were […], and the volume of a culture medium was 100 μL.
Cell transfection: lipid nanoparticles coated with luciferase mRNA were added into a 96-well all-white ELISA plate laid with primary cells. The adding volume of the mRNA lipid nanoparticles in each well was controlled to be 10 μL. Then, the materials were put into a 37° C. incubator containing 5% CO2 for 16 h.
Transfection efficiency detection: 20 μL of a substrate ONE-Glo™ Luciferase was added into each well of a 96-well all-white ELISA plate. After 1 min, detection was performed by a multifunctional or multimode microplate reader.

| Compound | Luciferase luminescence intensity |
| --- | --- |
| C=CCCCCC(COC(=O)C(CCCCCCC)CCCCCCCCC)OC(=O)CCCCN(C)C (stereo not shown) [E15C79A11] | 3.0E+ 04 |
| C=CCCCCC(COC(=O)C(CCCCCCC)CCCCCCCCC)OC(=O)CCCCCN(C)C (stereo not shown) [E15C79A12] | 4.4E+ 04 |
| CCCCCCCCCCCCCC(=O)OCC(CCCCCC(CC)CC)OC(=O)C(C)CCN(C)C (stereo not shown) [E20C9A10] | 2.7E+ 04 |
| CCCCCCCCCCCCCC(=O)OCC(CCCCCC(CC)CC)OC(=O)CCCCN(C)C (stereo not shown) [E20C9A11] | 4.0E+ 04 |
| CCCCCCCCCCCCCCC(=O)OCC(CCCCCC(CC)CC)OC(=O)CCCN(C)C (stereo not shown) [E20C10A9] | 4.8E+ 04 |
| CCCCCCCCCCCCCCC(=O)OCC(CCCCCC(CC)CC)OC(=O)C(C)CCN(C)C (stereo not shown) [E20C10A10] | 1.2E+ 04 |
| CCCCCCCCCCCCCCC(=O)OCC(CCCCCC(CC)CC)OC(=O)CCCCN(C)C (stereo not shown) [E20C10A11] | 1.9E+ 04 |
| CCCCCCCCCCCCCCC(=O)OCC(CCCCCC(CC)CC)OC(=O)CCCCCN(C)C (stereo not shown) [E20C10A12] | 3.6E+ 04 |
| CCCCCCCCCCCCCCCC(=O)OCC(CCCCCC(CC)CC)OC(=O)CCCN(C)C (stereo not shown) [E20C11A9, 2-((4-(Dimethylamino)Butyryl)Oxy)-8-Ethyldecyl Palmitate] | 9.9E+ 04 |
| CCCCCCCCCCCCCCCC(=O)OCC(CCCCCC(CC)CC)OC(=O)C(C)CCN(C)C (stereo not shown) [E20C11A10] | 4.5E+ 04 |
| CCCCCCCCCCCCCCCC(=O)OCC(CCCCCC(CC)CC)OC(=O)C1CCN(C)CC1 (stereo not shown) [E20C11A23] | 1.6E+ 04 |
| CCCCCCCCCCCCCCCCC(=O)OCC(CCCCCC(CC)CC)OC(=O)CCCN(C)C (stereo not shown) [E20C12A9] | 4.9E+ 04 |
| CCCCCCCCCCCCCCCCC(=O)OCC(CCCCCC(CC)CC)OC(=O)C(C)CCN(C)C (stereo not shown) [E20C12A10] | 9.6E+ 04 |
| CCCCCCCCCCCCCCCCC(=O)OCC(CCCCCC(CC)CC)OC(=O)C1CCN(C)CC1 (stereo not shown) [E20C12A23] | 1.7E+ 04 |
| CCCCCCC(CCCCCC)C(=O)OCC(CCCCCC(CC)CC)OC(=O)CCCN(C)C (stereo not shown) [E20C64A9] | 3.0E+ 04 |
| CCCCCCCCCCC(C)(C)C(=O)OCC(CCCCCC(CC)CC)OC(=O)CCCN(C)C (stereo not shown) [E20C66A9] | 5.9E+ 04 |
| CCC(CC)CCCCCC(COC(=O)CCCCCCCCCCCC(C)C)OC(=O)CCCN(C)C (stereo not shown) [E20C67A9] | 9.5E+ 03 |
| CCCCCCCCC(CCCCCC)C(=O)OCC(CCCCCC(CC)CC)OC(=O)CCCN(C)C (stereo not shown) [E20C71A9] | 6.6E+ 04 |
| CCCCCCCCCCCCCC(C)C(=O)OCC(CCCCCC(CC)CC)OC(=O)CCCN(C)C (stereo not shown) [E20C72A9] | 4.7E+ 03 |
| CCCCCCCCCCCCCCCC(=O)OCC(OC(=O)CCCN(C)C)C(CCCC)CCCCC (stereo not shown) [E21C11A9] | 8.7E+ 03 |
| CCCCCCCCCCCCCCCC(=O)OCC(OC(=O)C(C)CCN(C)C)C(CCCC)CCCCC (stereo not shown) [E21C11A10] | 1.7E+ 04 |
| CCCCCCCCCCCCCCCC(=O)OCC(OC(=O)CCCCN(C)C)C(CCCC)CCCCC (stereo not shown) [E21C11A11] | 4.7E+ 04 |
| CCCCCCCCCCCCCCCCC(=O)OCC(OC(=O)CCCN(C)C)C(CCCC)CCCCC (stereo not shown) [E21C12A9] | 5.4E+ 04 |
| CCCCCCCCCCCCCCCCC(=O)OCC(OC(=O)C(C)CCN(C)C)C(CCCC)CCCCC (stereo not shown) [E21C12A10] | 8.9E+ 04 |
| CCCCCCCCCCCCCCCCC(=O)OCC(OC(=O)CCCCN(C)C)C(CCCC)CCCCC (stereo not shown) [E21C12A11] | 9.5E+ 04 |
| CCCCCCCCCCCCCCCCCC(=O)OCC(OC(=O)CCCN(C)C)C(CCCC)CCCCC (stereo not shown) [E21C13A9] | 6.7E+ 04 |
| CCCCCCCCCCCCCCCCCC(=O)OCC(OC(=O)CCCCN(C)C)C(CCCC)CCCCC (stereo not shown) [E21C13A11] | 6.4E+ 04 |
| CCCCCCCCCCCCCCCCCCC(=O)OCC(OC(=O)CCCN(C)C)C(CCCC)CCCCC (stereo not shown) [E21C14A9] | 4.5E+ 04 |
